Tests used:
[1] = system: potatoes of the variety Bintje; test: Fogging trial in potato storage cabins, sprout index (PCA scale); type: in vivo, Solanum tuberosum; settings: fogging every 3 weeks during storage, PCA scale 1-9
Method: The storage system was designed to duplicate a large commercial storage facility in miniature. It consisted of 4 test cabins, with room for 4 boxes per level. In total there were 7 levels, and the boxes were placed in a stair-pattern, in clock-wise direction. Each cabin could be used to store up to 560 kg of potatoes per cabin. The dimensions of a cabin are depicted in FIG. 1.
During storage the air temperature within the storage system was kept between 5.0° C. and 9.5° C. The relative humidity was kept between 87% and 100%.
The application equipment used for hot fogging was IGEBA TF-35. The application equipment used for cold fogging was VEUGEN, type: FOGCOL. The operation pressure was 3.3 bar. […]
Around 15 minutes before treatment, Automatic Regulation was switched off and Manual Internal Ventilation was switched on (Force III). […] Note: Ventilation Force III means ˜900 m^3/h. • As the exact weight of tubers in the cell was known, the exact quantity of formulated product was calculated and prepared. • During spraying/fogging and till around 15 minutes after spraying, Internal • Ventilation was kept switched on (Force III) to assure a good contact between product and tubers. • Around 15 minutes after spraying, Internal Ventilation was switched off • The day after (minimum 12 hours after end of spraying) Automatic Regulation was switched on till next application or till end of trial […]

potatoes = settings: hot fogging; cited from earlier work

Row | Structure (SMILES) | sprout growth (sprout index, FIG. 2) [1] | anti-sprouting efficacy in combination with CIPC (potatoes)
1 | C=C(C)C1CC=C(C)CC1 (centres unmarked) [Limonene, 1-methyl-4-(1-methylethenyl)-cyclohexene] | did not have any effect on sprout growth | 
2 | C=C(C)C1CC=C(C)C(=O)C1 (centres unmarked) [carvone] |  | good result
